Tests used:
BTK = BTK (Homo sapiens, UniProt Q06187); set-up: BTK kinase domain was expressed and purified as previously reported; made in house; method as in Reddi et al., J. Am. Chem. Soc. 2021, 143 (13), 4979–4992; conditions: ref Reddi et al., J. Am. Chem. Soc. 2021, 143 (13), 4979–4992; cited from earlier work
BTK-1h = target: T1, BTK-1h (Homo sapiens, UniProt Q06187); assay: High-throughput screening with 1h-labeled BTK; type: binding; conditions: Dataset S2A; 200 μM compound, BTK-1h, 32 °C, 10 min
T1 construct: The BTK kinase domain was diluted to 2 μM in the buffer, and 2 μM 1h was added; made in house
Method: The collection was composed of BTK binding compounds obtained in our previous luminescence screen[37] (Data set S2). […] The resulting BTK-1h (50 μL) was added to the inhibitors.

T1 sequence (Q06187 402-655): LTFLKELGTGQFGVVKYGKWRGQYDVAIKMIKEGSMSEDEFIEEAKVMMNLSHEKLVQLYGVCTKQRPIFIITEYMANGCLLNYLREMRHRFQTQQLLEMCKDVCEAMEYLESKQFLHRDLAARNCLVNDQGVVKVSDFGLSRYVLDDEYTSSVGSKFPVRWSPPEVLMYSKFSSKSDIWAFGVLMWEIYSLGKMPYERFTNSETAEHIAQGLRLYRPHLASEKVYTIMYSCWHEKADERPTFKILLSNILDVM
Chain of BTK (Q06187 402-655 limits assumed): as the sequence (Q06187 402-655) above

| SMILES | BTK Inhibition reported in luminescence assay* (BTK) | FI (650)/FI (620) (BTK-1h) | FI (BTK-1h)/FI (BTK-1h+Inhibitor) at 620 nm (BTK-1h) |
| --- | --- | --- | --- |
| O=c1cc(-c2ccc(O)c(O)c2)oc2cc(O)cc(O)c12 [PCM-0086559-001] | 84.8 | 2.125 | 1.0702 |
| NCC(=O)Nc1ccc(-n2nc(C(F)(F)F)cc2-c2ccc3c(ccc4ccccc43)c2)cc1 [PCM-0094886-003] | 70.3 | 1.037 | 1.095 |
| CCCCCCCCCCCCCCCC(=O)O[C@@H]1[C@@H](O)[C@@H](O)[C@@H]([C@H](NC(=O)[C@@H]2C[C@@H](CCC)CN2C)[C@H](C)Cl)O[C@@H]1SC.Cl [PCM-0215167-001] | 73.2 | 0.5899 | 0.9902 |
| O=C(NCCCNc1nc(Nc2cccc(NC(=O)N3CCCC3)c2)ncc1I)c1cccs1 [PCM-0095061-002] | 60 | 1.86 | 1.055 |
| Cc1nc(N)sc1-c1ccnc(Nc2ccc(N3CCOCC3)cc2)n1 [PCM-0095025-002] | 57.2 | 1.274 | 1.071 |
| COc1cc2nccc(Oc3ccc(NC(=O)Nc4cc(C)on4)c(Cl)c3)c2cc1OC [PCM-0094927-002] | 84.1 | 1.123 | 1.05 |
| Cc1cc(Nc2cc(CN3CCOCC3)c3nc(C)c(Cc4ccc(Cl)cc4F)n3n2)n[nH]1 [PCM-0095222-002] | 56.6 | 1.03 | 1.045 |
| C[C@@H](Oc1ccc2[nH]nc(/C=C/c3cnn(CCO)c3)c2c1)c1c(Cl)cncc1Cl [PCM-0215376-001] | 101.4 | 1.5356 | 1.156 |
| CCCCc1oc2ccccc2c1C(=O)c1cc(I)c(OCCN(CC)CC)c(I)c1.Cl [PCM-0064561-003] | 75.5 | 1.028 | 1.018 |
| CN1CCN(c2ccc(C(=O)Nc3n[nH]c4ccc(Cc5cc(F)cc(F)c5)cc34)c(NC3CCOCC3)c2)CC1 [PCM-0215551-001] | 102.8 | 0.9755 | 1.038 |
| O=C(Nc1cccc2c(=O)cc(-c3nn[nH]n3)oc12)c1ccc(OCCCCc2ccccc2)cc1 [PCM-0095155-002] | 73.8 | 1.503 | 1.506 |
| Cc1nc(Nc2n[nH]c3c2CN(C(=O)N[C@H](CN(C)C)c2ccccc2)C3(C)C)c2sccc2n1 [PCM-0095819-002] | 72.4 | 0.9908 | 1.0756 |
| C=CC(=O)Nc1ccc2ncnc(Nc3ccc(OCc4cccc(F)c4)c(Cl)c3)c2c1.Cc1ccc(S(=O)(=O)O)cc1 [PCM-0095229-002] | 109.7 | 0.9282 | 1.039 |
| O=c1c(O)c(-c2ccc(O)cc2)oc2cc(O)cc(O)c12 [PCM-0087037-002] | 67.7 | 0.933 | 1.031 |
| Cc1c[nH]c(/C=C2\C(=O)Nc3ccccc32)c1CCC(=O)O [PCM-0216652-001] | 83.4 | 1.505 | 1.061 |
| COc1ccc(-c2nc(-c3cc(C(F)(F)F)cc(C(F)(F)F)c3)n(Cc3ccc(C(N)=O)cc3)c2-c2ccc(OC)cc2)cc1 [PCM-0215748-001] | 57.1 | 0.9815 | 1.0289 |
| COCCOC(=O)C1=C(C)NC(C)=C(C(=O)OC/C=C/c2ccccc2)C1c1cccc([N+](=O)[O-])c1 (stereo not drawn) [PCM-0065102-001] | 59.9 | 0.8604 | 1.035 |
| CNCc1ccc(C)c(NC(=O)c2ccc(Nc3nc(-c4ccccc4)c4ccccc4n3)cc2)c1 [PCM-0095748-002] | 79.5 | 1.264 | 1.088 |
| O=[N+]([O-])c1ccc(Nc2ccccc2-c2ccccc2)c2nonc12 [PCM-0215806-001] | 74.1 | 1.017 | 1.01 |
